Each structure is given as a SMILES string. ± gives the expanded uncertainty stated by the source.

The conditions of the series: Crystal; visual observation.
As for `O=c1c2ccccc2sc2cccc(O)c12` [1-hydroxythioxanthone], the Normal melting temperature amounted to 119 ± 1 °C.

Turning to `Cc1cc(O)c2c(=O)c3ccccc3sc2c1` [1-hydroxy3-methylthioxanthone], the Normal melting temperature worked out at 149 ± 1 °C. In the case of `Cc1cc(O)c2c(=O)c3ccccc3sc2c1O` [1,4-dihydroxy-3-methylthioxanthone] it was 240 ± 4 °C; in that of `O=c1c2ccccc2sc2ccccc12` [thioxanthone], 209 ± 2 °C.

Source of the values: the NIST ThermoML archive (doi:10.1021/je020163y).
